Reference: US8258182B2, “Substituted 1,3-diphenylpropane derivatives, preparations and uses thereof” (Genfit, priority 2006, dated 2012)

Tests used:
[1] = system: PPARs target genes (PDK4, ApoCIII, ACO) in the hepatic tissue; assay: Hepatic expression of PPAR target genes in E2/E2 mice (quantitative RT-PCR); assay type: in vivo, mouse; settings: 3 and 10 mpk
Description: The effectiveness of the compounds according to the invention is also evaluated by measuring, in the hepatic tissue, the expression of genes involved in lipid and/or glucids metabolism and in energy dissipation. Each level of genes expression is normalised regarding the expression level of the reference gene 36B4's. The induction factor, i.e. the ratio between the relative signal (induced by the compound according to the invention) and the average of the relative values relating to the control group is then calculated. The higher the induction factor is, the more the compound promotes hepatic gene expression. The final result is expressed as an average of the induction values obtained with each experimental group.
The PPARα agonist properties previously measured in vitro should, in the liver, lead to an overexpression of the target genes directly under the control of the PPARα: the genes we have studied in this experiment are PDK-4 (an enzyme involved in glucid metabolism), Apo CIII (an apolipoprotein involved in lipid metabolism), and Acox1 (in mice, Acox1 corresponds to the ACO gene in humans (Acyl Co-enzymeA Oxydase, an enzyme key to the fatty acid β-oxidation mechanism)). Measuring the transcriptional activity of PPARα target genes after a treatment with compounds according to the invention does therefore allow to evaluate the hypolipidemic properties of the compounds according to the invention.
The ApoE2/E2 transgenic mice were kept on a 12 hour/12 hour light/dark cycle at a constant temperature of 20±3° C. After a one week acclimatization period, the mice were weighed and divided into groups of 6 animals selected so as to render uniform the distribution of their body weights and plasma lipid rates, determined before the experiment. The tested compounds were suspended in carboxymethylcellulose (Sigma C4888) and administered by intra-gastric tube feeding once a day for 8 days (for compound 1) or 14 days (for compound 8) with the chosen doses. The animals had free access to food and water (standard diet). Taking of food and weight gain are recorded throughout the experiment. At the end of the experiment, the animals were anesthetized after a 4 hour fast, and a blood sample was taken using (EDTA) anticoagulant, then the mice were weighed and euthanized. The plasma was separated by centrifugation at 3000 rotations/minute for 20 minutes. The samples were kept at +4° C.
Liver samples were removed, frozen in liquid nitrogen, and kept at −80° C. for later analyses.
Total RNA is extracted from liver fragments by using the NucleoSpin® 96 RNA kit (Macherey Nagel, Hoerdt, France) according to the manufacturer's instructions.
1 μg of total RNA (quantified by using the Ribogreen RNA quantification kit (Molecular Probes)) is then reverse-transcripted into complementary DNA by means of a 1 hour reaction at 37° C. in a total volume of 20 μl containing a 1× buffer (Sigma), 1.5 mM of DTT, 0.18 mM of dNTPs (Promega), 200 ng of pdN6 (Amersham), 30U of RNase inhibitor (Sigma), and 1 μl of MMLV-RT (Sigma).
The PCR quantitative experiments were carried out using the MyiQ Single-Color Real-Time PCR Detection System (Biorad, Marnes-la-Coquette, France) and were performed using the iQ SYBR Green Supermix kit according to the manufacturer's recommendations, in 96-well trays in 5 μl of a diluted reverse transcription solution at a hybridation temperature of 55° C. The specific primer pairs of the genes studied were used: • PDK4: sense primer: 5′-[…]-3′ (SEQ ID NO: 1) and antisense primer 5′-[…]-3′ (SEQ ID NO: 2)) • ApoCIII: sense primer: 5′-[…]-3′ (SEQ ID NO: 3) and antisense primer 5′-[…]-3′ (SEQ ID NO: 4). • ACO: sense primer: 5′-[…]-3′ (SEQ ID NO: 5) and antisense primer: 5′-[…]-3′ (SEQ ID NO: 6)
The quantity of fluorescencet emitted is directly proportional to the quantity of cDNA present at the beginning of the reaction and amplified during the PCR. […]

db/db mice = assay: Plasma HDL-cholesterol, triglycerides and free fatty acids in db/db mice after per os treatment; assay type: in vivo, mouse; settings: 50 mpk per os, 28 days
Description: The effect of the compounds according to the invention is evaluated in vivo on the db/db mice by measuring the levels of HDL-cholesterol, triglycerides, and plasma free fatty acids after 28 days of a per os treatment with the compounds according to the invention.
The hypolipidemic properties of the compounds according to the invention are evaluated in vivo by measuring the plasma levels of plasmatic lipids and by analyzing the genetic expression PPARs target genes, after treating the dyslipidemic db/db mice with the compounds according to the invention, administered by the oral route.
Female db/db mice were kept on a 12 hour/12 hour light/dark cycle at a constant temperature of 20±3° C. After a one week acclimatization period, the mice were weighed and divided into groups of 8 animals selected such as the distribution of body weight and of plasma lipid rate, determined before the experiment, was uniform. The tested compounds were suspended in carboxymethylcellulose (Sigma C4888) and administered to the animals by intra-gastric gavage, once a day for 28 days at the chosen doses. The animals had free access to food and water (standard diet). Taking of food and weight gain are recorded throughout the experiment. At the end of the experiment, after a 4 hour fast, the animals were anesthetized and a blood sample was taken on anticoagulant (EDTA). Then the mice were weighed and euthanized. The plasma was separated by centrifugation at 3000 rotations/minute for 20 minutes. The samples were kept at +4° C. The hepatic tissue and skeletal muscle samples were taken and frozen immediately in liquid nitrogen then conserved at −80° C. for later analysis.
Plasma triglycerides concentrations are measured by enzymatic assays (bioMérieux-Lyon-France) according to the provider's recommendations.
Low-density lipoproteins (VLDL and LDL) are precipitated by phosphotungstate. The precipitate is eliminated by centrifugation. HDL-cholesterol present in the supernatant is measured by enzymatic assay (bioMérieux-Lyon-France) in accordance with the provider's recommendations.

CCCOc1ccc(C(=O)CCc2cc(C)c(OC(C)(C)C(=O)O)c(C)c2)cc1 [Compound 8, 2-[2,6-dimethyl-4-[3-[4-(propyloxy)phenyl]-3-oxo-propyl]phenoxyl]-2-methylpropanoic acid]
hepatic expression of the genes coding for PDK4 ([1]; 14 days (FIG. 2-7)): significant augmentation | hepatic expression of the genes coding for ApoCIII ([1]; 14 days (FIG. 2-8)): reduction | hepatic expression of the genes coding for ACO ([1]; 14 days (FIG. 2-9)): significant augmentation | plasma HDL-cholesterol rates (db/db mice; vs control animals (FIG. 3-1)): significantly increased | circulating triglycerides rates (db/db mice; vs control animals (FIG. 3-2)): very significantly decreased | circulating free fatty acids rates (db/db mice; vs control animals (FIG. 3-3)): very significantly decreased
